Results as given in ChEMBL document CHEMBL3885861, “Open TG-GATES”.

Species on record: Rattus norvegicus
Test: Open TG-GATES - Regimen: Daily Repeat
Type: toxicity, organism-based, Sprague-Dawley
Design: regimen Daily Repeat, gender Male, age 6 weeks
Settings: in vivo, po, route gavage; for APTT / Bas / Eos / Fbg / Hb / Ht / Lym / MCH / MCHC / MCV / Mono / Neu / PT / Plat / RBC / Ret / WBC: tissue Blood; for KIDNEY_L / KIDNEY_R / KIDNEY_TOTAL: tissue Kidney; for LIVER: tissue Liver; for A/G / ALP / ALT / AST / BUN / CRE / Ca / Cl / DBIL / GLC / IP / K / LDH / Na / PL / RALB / TBIL / TC / TG / TP / gamma-GTP: tissue Plasma
[1] = 100 mg/kg, 72 h, dose level Middle, time 3 day
[2] = 100 mg/kg, […], dose level Middle, time 7 day
[3] = 100 mg/kg, […], dose level Middle, time 14 day
[4] = 100 mg/kg, […], dose level Middle, time 28 day
[5] = 300 mg/kg, 72 h, dose level High, time 3 day
[6] = 300 mg/kg, […], dose level High, time 7 day
[7] = 300 mg/kg, […], dose level High, time 14 day
[8] = 300 mg/kg, […], dose level High, time 28 day

## CC[C@H]1[C@@H]2C[C@H]3[C@@H]4N(C)c5ccccc5[C@]45C[C@@H]([C@@H]2[C@H]5O)N3[C@@H]1O [AJMALINE]
[1]
  TERMINAL_BW: 207.1 g
  APTT: 16.3 s
  Bas: 0%
  Eos: 1%
  Fbg: 202.6 mg/dL
  Hb: 12.8 g/dL
  Ht: 39.2%
  Lym: 79%
  MCH: 21.3 pg
  MCHC: 32.8%
  MCV: 65.1 fL
  Mono: 6%
  Neu: 13.6%
  PT: 11.8 s
  Plat: 114.8 x10_4/uL
  RBC: 601.8 x10_4/ul
  Ret: 7.8%
  WBC: 101.3 x10_2/uL
  KIDNEY_L: 1 g
  KIDNEY_R: 0.9 g
  KIDNEY_TOTAL: 1.9 g
  LIVER: 9.7 g
  A/G: 1.9
  ALP: 888.2 IU/L
  ALT: 39.2 IU/L
  AST: 63 IU/L
  BUN: 16.2 mg/dL
  CRE: 0.5 mg/dL
  Ca: 10.6 mg/dL
  Cl: 102.2 meq/L
  DBIL: 0.04 mg/dL
  GLC: 201 mg/dL
  IP: 7.9 mg/dL
  K: 4.3 meq/L
  LDH: 98.6 IU/L
  Na: 139.2 meq/L
  PL: 138 mg/dL
  RALB: 3.5 g/dL
  TBIL: 0.3 mg/dL
  TC: 71.8 mg/dL
  TG: 81 mg/dL
  TP: 5.3 g/dL
  gamma-GTP: 1 IU/L
[2]
  TERMINAL_BW: 245.4 g
  APTT: 16.6 s
  Bas: 0%
  Eos: 0.8%
  Fbg: 231.4 mg/dL
  Hb: 13.3 g/dL
  Ht: 40.4%
  Lym: 78.8%
  MCH: 21.1 pg
  MCHC: 32.8%
  MCV: 64.4 fL
  Mono: 7.6%
  Neu: 13%
  PT: 11.3 s
  Plat: 128.6 x10_4/uL
  RBC: 628 x10_4/ul
  Ret: 6.9%
  WBC: 119.7 x10_2/uL
  KIDNEY_L: 1 g
  KIDNEY_R: 1.1 g
  KIDNEY_TOTAL: 2.1 g
  LIVER: 12.2 g
  A/G: 2
  ALP: 770 IU/L
  ALT: 32.8 IU/L
  AST: 61.4 IU/L
  BUN: 18 mg/dL
  CRE: 0.5 mg/dL
  Ca: 11.6 mg/dL
  Cl: 103.8 meq/L
  DBIL: 0.012 mg/dL
  GLC: 219.2 mg/dL
  IP: 8.7 mg/dL
  K: 4.7 meq/L
  LDH: 106.8 IU/L
  Na: 142.8 meq/L
  PL: 154.4 mg/dL
  RALB: 3.8 g/dL
  TBIL: 0.3 mg/dL
  TC: 80 mg/dL
  TG: 94.6 mg/dL
  TP: 5.7 g/dL
  gamma-GTP: 1.4 IU/L
[3]
  TERMINAL_BW: 299.4 g
  APTT: 16.9 s
  Bas: 0%
  Eos: 0.8%
  Fbg: 231.4 mg/dL
  Hb: 14.1 g/dL
  Ht: 42.6%
  Lym: 80.6%
  MCH: 20.4 pg
  MCHC: 33.1%
  MCV: 61.7 fL
  Mono: 5.6%
  Neu: 13.4%
  PT: 11.2 s
  Plat: 140 x10_4/uL
  RBC: 690 x10_4/ul
  Ret: 4.7%
  WBC: 140 x10_2/uL
  KIDNEY_L: 1.2 g
  KIDNEY_R: 1.2 g
  KIDNEY_TOTAL: 2.3 g
  LIVER: 13.4 g
  A/G: 1.9
  ALP: 802.8 IU/L
  ALT: 31.8 IU/L
  AST: 65.6 IU/L
  BUN: 19.4 mg/dL
  CRE: 0.6 mg/dL
  Ca: 11 mg/dL
  Cl: 104 meq/L
  DBIL: 0.012 mg/dL
  GLC: 207 mg/dL
  IP: 7.6 mg/dL
  K: 4.7 meq/L
  LDH: 116.4 IU/L
  Na: 140.6 meq/L
  PL: 153.2 mg/dL
  RALB: 3.7 g/dL
  TBIL: 0.4 mg/dL
  TC: 77 mg/dL
  TG: 109.6 mg/dL
  TP: 5.7 g/dL
  gamma-GTP: 1.2 IU/L
[4]
  TERMINAL_BW: 363.5 g
  APTT: 16.5 s
  Bas: 0%
  Eos: 1%
  Fbg: 218.6 mg/dL
  Hb: 15.3 g/dL
  Ht: 45.6%
  Lym: 83%
  MCH: 19.2 pg
  MCHC: 33.4%
  MCV: 57.5 fL
  Mono: 4.8%
  Neu: 11.2%
  PT: 11.5 s
  Plat: 123.8 x10_4/uL
  RBC: 795 x10_4/ul
  Ret: 2.1%
  WBC: 123.3 x10_2/uL
  KIDNEY_L: 1.3 g
  KIDNEY_R: 1.3 g
  KIDNEY_TOTAL: 2.6 g
  LIVER: 14.6 g
  A/G: 1.8
  ALP: 699.2 IU/L
  ALT: 33.4 IU/L
  AST: 59.8 IU/L
  BUN: 17.8 mg/dL
  CRE: 0.6 mg/dL
  Ca: 10.2 mg/dL
  Cl: 104.4 meq/L
  DBIL: 0.036 mg/dL
  GLC: 189.8 mg/dL
  IP: 6.6 mg/dL
  K: 4.5 meq/L
  LDH: 87.6 IU/L
  Na: 141.2 meq/L
  PL: 131.6 mg/dL
  RALB: 3.9 g/dL
  TBIL: 0.3 mg/dL
  TC: 60.6 mg/dL
  TG: 108.4 mg/dL
  TP: 6 g/dL
  gamma-GTP: 1.6 IU/L
[5]
  TERMINAL_BW: 209.6 g
  APTT: 16.2 s
  Bas: 0%
  Eos: 1%
  Fbg: 214 mg/dL
  Hb: 12.9 g/dL
  Ht: 39.7%
  Lym: 82.8%
  MCH: 20.9 pg
  MCHC: 32.4%
  MCV: 64.4 fL
  Mono: 7.2%
  Neu: 9.6%
  PT: 11.6 s
  Plat: 121.1 x10_4/uL
  RBC: 616.8 x10_4/ul
  Ret: 7.8%
  WBC: 133 x10_2/uL
  KIDNEY_L: 0.9 g
  KIDNEY_R: 0.9 g
  KIDNEY_TOTAL: 1.9 g
  LIVER: 10.3 g
  A/G: 2
  ALP: 989.6 IU/L
  ALT: 44.2 IU/L
  AST: 68.2 IU/L
  BUN: 17 mg/dL
  CRE: 0.5 mg/dL
  Ca: 11.5 mg/dL
  Cl: 100.4 meq/L
  DBIL: 0.034 mg/dL
  GLC: 200 mg/dL
  IP: 8.3 mg/dL
  K: 4.4 meq/L
  LDH: 123.2 IU/L
  Na: 138.8 meq/L
  PL: 150 mg/dL
  RALB: 3.6 g/dL
  TBIL: 0.3 mg/dL
  TC: 87.6 mg/dL
  TG: 57.2 mg/dL
  TP: 5.4 g/dL
  gamma-GTP: 0.8 IU/L
[6]
  TERMINAL_BW: 244.7 g
  APTT: 16.4 s
  Bas: 0%
  Eos: 0.8%
  Fbg: 225.6 mg/dL
  Hb: 13.2 g/dL
  Ht: 39.9%
  Lym: 81%
  MCH: 21.1 pg
  MCHC: 33.1%
  MCV: 63.6 fL
  Mono: 4.4%
  Neu: 13.4%
  PT: 11.3 s
  Plat: 142.3 x10_4/uL
  RBC: 627.2 x10_4/ul
  Ret: 7%
  WBC: 118.8 x10_2/uL
  KIDNEY_L: 1.1 g
  KIDNEY_R: 1.1 g
  KIDNEY_TOTAL: 2.2 g
  LIVER: 11.7 g
  A/G: 1.9
  ALP: 944.4 IU/L
  ALT: 37 IU/L
  AST: 57.8 IU/L
  BUN: 16.8 mg/dL
  CRE: 0.5 mg/dL
  Ca: 11.6 mg/dL
  Cl: 103 meq/L
  DBIL: 0.026 mg/dL
  GLC: 189.8 mg/dL
  IP: 8.3 mg/dL
  K: 4.6 meq/L
  LDH: 98.8 IU/L
  Na: 141.4 meq/L
  PL: 142 mg/dL
  RALB: 3.5 g/dL
  TBIL: 0.4 mg/dL
  TC: 80.8 mg/dL
  TG: 56.8 mg/dL
  TP: 5.4 g/dL
  gamma-GTP: 1.2 IU/L
[7]
  TERMINAL_BW: 293.9 g
  APTT: 16.3 s
  Bas: 0%
  Eos: 1%
  Fbg: 234.8 mg/dL
  Hb: 13.9 g/dL
  Ht: 42%
  Lym: 83.2%
  MCH: 20.8 pg
  MCHC: 33.1%
  MCV: 62.7 fL
  Mono: 4.2%
  Neu: 11.8%
  PT: 11.2 s
  Plat: 140.6 x10_4/uL
  RBC: 670 x10_4/ul
  Ret: 5.6%
  WBC: 139.9 x10_2/uL
  KIDNEY_L: 1.2 g
  KIDNEY_R: 1.2 g
  KIDNEY_TOTAL: 2.4 g
  LIVER: 13.4 g
  A/G: 2.1
  ALP: 849.4 IU/L
  ALT: 35.4 IU/L
  AST: 62.2 IU/L
  BUN: 17.8 mg/dL
  CRE: 0.5 mg/dL
  Ca: 11.4 mg/dL
  Cl: 102.6 meq/L
  DBIL: 0.022 mg/dL
  GLC: 201.8 mg/dL
  IP: 8.2 mg/dL
  K: 4.8 meq/L
  LDH: 101.8 IU/L
  Na: 140 meq/L
  PL: 142.4 mg/dL
  RALB: 3.7 g/dL
  TBIL: 0.5 mg/dL
  TC: 73.6 mg/dL
  TG: 82 mg/dL
  TP: 5.5 g/dL
  gamma-GTP: 1.6 IU/L
[8]
  TERMINAL_BW: 349.6 g
  APTT: 17.3 s
  Bas: 0%
  Eos: 1.2%
  Fbg: 244.2 mg/dL
  Hb: 15.3 g/dL
  Ht: 45.1%
  Lym: 80.8%
  MCH: 19.8 pg
  MCHC: 33.9%
  MCV: 58.3 fL
  Mono: 5%
  Neu: 13.4%
  PT: 11.3 s
  Plat: 141.8 x10_4/uL
  RBC: 772.4 x10_4/ul
  Ret: 2.8%
  WBC: 147.5 x10_2/uL
  KIDNEY_L: 1.3 g
  KIDNEY_R: 1.4 g
  KIDNEY_TOTAL: 2.7 g
  LIVER: 15.4 g
  A/G: 1.8
  ALP: 589.2 IU/L
  ALT: 38.4 IU/L
  AST: 61.8 IU/L
  BUN: 19 mg/dL
  CRE: 0.7 mg/dL
  Ca: 11 mg/dL
  Cl: 103.2 meq/L
  DBIL: 0.036 mg/dL
  GLC: 187.2 mg/dL
  IP: 7.3 mg/dL
  K: 4.8 meq/L
  LDH: 88.4 IU/L
  Na: 140.8 meq/L
  PL: 172.8 mg/dL
  RALB: 3.9 g/dL
  TBIL: 0.3 mg/dL
  TC: 96.8 mg/dL
  TG: 73.6 mg/dL
  TP: 6.1 g/dL
  gamma-GTP: 1.4 IU/L
